≈ marks a conversion by molar mass, not a printed value. Where “and” joins values, the source holds several entries; their conditions need not be identical. Equal values may be shown once. Entries after “also recorded” stand apart in the source; their conditions may differ. Read-outs that look alike come from different tables or passages of the source. A value given as a limit tells only on which side of the number the result lay.

The source of these data is patent US5506268A, “Use of isovaleramide as a mild anxiolytic and sedative agent” (priority 1993, dated 1996).

Data set [1] has as its system male Sprague-Dawley rats. Description: Vogel Conflict (anxiolytic) Assay, punished licks. The settings on record: for anxiolytic activity in Vogel Conflict Assay: comparable dose levels (500-1000 mg/kg). It counts as in vivo, rat.
Source text: In the Vogel Conflict Paradigm, thirsty rats are given mild electric shocks through a metal water dispenser when they try to drink. The shock is unpleasant, but not severe enough to cause overt pain. When administered anxiolytic drugs, the rats lick the dispenser more often than controls. Assessment of anxiolytic effects is thus measured as an increased number of licks.
Animals (male Sprague-Dawley rats, 250-300 g) are deprived of water for 24 hr and are then placed into a clear Plexiglass box (45 cm×25 cm×20 cm) which rests on a grid of stainless steel bars. A circuit between the grid bars and the drinking spout is established with a silver electrode in a drinking bottle placed in the chamber. The animals are allowed to lick the water dispenser for 5 min without shock; those animals that fail to lick are excluded from further study.
The animals are returned to the home colony and are again deprived of water for 24 hr and replaced in the chamber and allowed to lick for 1 min without shock. Then a 1 milliamp current (shock) is maintained for 4 min at the drinking spout. Only the animals showing 50% suppression in licking behavior compared to the first session are included in further testing.
The test substances are injected intraperitoneally (IP) after this session, and 30 min later the animals are again placed into the chamber. Again the animals are allowed to lick without shock for 1 min and the shock is instituted for the remaining 4 min. The number of punished licks during this time is used to assess anxiolytic activity.
The "anxiolytic index" is defined as the ratio of the number of punished licks of test animals to that of control animals during a 4-min period. An anxiolytic index greater than one indicates anxiolytic ("calmative") activity. In practice, it is considered that significant "calmative" activity is observed when the anxiolytic index is greater than 1.5.
Male Sprague-Dawley rats (250-300 g) were deprived of water for 24 hours before testing. The animals were allowed one five-minute period of drinking in the experimental chamber before receiving the test substances at the indicated doses. Thirty minutes later, the animals were returned to the chamber and allowed to drink for one minute without punishment. For the remaining four minutes, a shock was delivered to the drinking spout and the number of punished licks was recorded. Four or five animals were tested in each group.
For data set [2], the system named is male Sprague-Dawley rats. The settings on record: injected at therapeutically effective doses; cited from earlier work.
The test system of data set [3] is COL-2. In words: In vitro cytotoxicity (cell growth inhibition), COL-2. It counts as cell-based, human and murine. The settings on record: Homo sapiens, read-out: EC50 (concentration that inhibited cell growth by 50%). On the procedure:
(§1) The valepotriate compounds valtrate, didrovaltrate and acevaltrate were compared with isovaleramide with respect to their effects on various human and murine tumor cell lines. The cells at log-phase growth were treated with various concentrations of test substances for 48 hr. Growth rates were then determined by directly counting cell numbers or by protein determination. EC50 is the effective concentration of test substance that inhibited cell growth by 50%.

Data set [4] relates to MEL-2. In words: In vitro cytotoxicity (cell growth inhibition), MEL-2. It counts as cell-based, human and murine. The settings on record: read-out: EC50 (concentration that inhibited cell growth by 50%). On the procedure: as §1
The test system of data set [5] is BCA-1. Description: In vitro cytotoxicity (cell growth inhibition), BCA-1. The data set is classed as cell-based, human and murine. The settings on record: read-out: EC50 (concentration that inhibited cell growth by 50%). On the procedure:
as §1

The test system of data set [6] is HT-1080. Description: In vitro cytotoxicity (cell growth inhibition), HT-1080. It counts as cell-based, human and murine. The settings on record: Homo sapiens, read-out: EC50 (concentration that inhibited cell growth by 50%). How it is done:
as §1

Data set [7] deals with KB. In words: In vitro cytotoxicity (cell growth inhibition), KB. The data set is classed as cell-based, human and murine. The settings on record: Homo sapiens, read-out: EC50 (concentration that inhibited cell growth by 50%). On the procedure: as §1
Data set [8] relates to KB-V1. Description: In vitro cytotoxicity (cell growth inhibition), KB-V1. It counts as cell-based, human and murine. The settings on record: Homo sapiens, read-out: EC50 (concentration that inhibited cell growth by 50%). How it is done:
as §1

Data set [9] deals with LUC-1. In words: In vitro cytotoxicity (cell growth inhibition), LUC-1. The data set is classed as cell-based, human and murine. The settings on record: read-out: EC50 (concentration that inhibited cell growth by 50%). On the procedure: as §1
The subject of data set [10] is P388. In words: In vitro cytotoxicity (cell growth inhibition), P388. The data set is classed as cell-based, human and murine. The settings on record: Mus musculus, read-out: EC50 (concentration that inhibited cell growth by 50%). On the procedure: as §1
For data set [11], the system named is experimental animals. The settings on record: cited from earlier work; for narcotic and hypnotic effects: experimental animals.
The subject of data set [12] is male mice. Description: Direct observation of sedation / general activity level. The data set is classed as in vivo, mouse. The settings on record: for minimal effective dose: Mus musculus, mice, IP; for observed sedative effects: male mice. On the procedure:
Sedative activity elicited by a test substance can be observed directly in experimental animals by a decrease in spontaneous locomotor activity, e.g., in open-field observation experiments. In such experiments, test animals are administered the test substance (usually by IP injection) and, after a suitable waiting period (usually 5-30 min), are placed into an open-field test chamber, which consists of a transparent plastic box with a clearly visible grid painted on the bottom (or floor). The numbers of excursions across the floor grids are then counted over a specified time period (usually 1-3 hours) and are subsequently compared with the numbers obtained from similarly treated saline controls. The number of grid crossings counted gives a direct measurement of the general activity level (measured as spontaneous locomotor activity) of each test animal in question. Sedative activity can be expressed as a percentage of the control level of spontaneous locomotor activity as measured by grid crossings per unit time.

The subject of data set [13] is hepatic porphyria. The settings on record: literature; cited from earlier work.
Data set [14] deals with male mice. Description: Hypnotic activity (loss of the righting reflex) in mice. The settings on record: Mus musculus, ip. It counts as in vivo.
For data set [15] the following is noted: cited from earlier work.
Data set [16] deals with various human and murine tumor cell lines. In words: Cytotoxicity summary over tumor cell lines. The data set is classed as cell-based. The settings on record: summary of Table 1. On the procedure: as §1
The conditions of data set [17]: in vivo; cited from earlier work.
Data set [18] can be described thus: Acute toxicity (LD50) and therapeutic index. The settings on record: mouse, in vivo; mice, IP. It counts as in vivo. How it is done:
(§2) Convulsant activity was tested for N,N-diethylisovaleramide and isovaleramide itself. The potential for CNS-stimulating and convulsant properties was assessed by administering appropriate doses of the test substances IP to rodents (male mice and rats). […] At the highest dose of isovaleramide tested (4000 mg/kg IP), some deaths resulted among the test animals (male mice) after sleeping for several days, apparently from respiratory depression. […] Further testing of isovaleramide at still higher dose levels was precluded by its solubility limits and the consequently overly large injection volumes required.

In data set [19] the test system is male mice. Description: Acute toxicity (LD50) and therapeutic index. The data set is classed as in vivo. The settings on record: male mice, 4000 mg/kg IP. How it is done:
as §2

Data set [20] relates to male rats. In words: Spontaneous locomotor activity measured electronically (sedative effect). The settings on record: for relative potency as strong sedative-hypnotic agent, valnoctamide versus isovaleramide: FIG. 3. It counts as in vivo, rat. The text has this:
General sedative effects can also be measured electronically by recording drug-induced decreases in spontaneous locomotor activity in treated experimental animals, as shown in FIG. 3.

The test system of data set [21] is male mice. The settings on record: Roszkowski and Govier 1962; cited from earlier work.
Data set [22] relates to male rats. Description: Hypnotic activity (loss of the righting reflex) in rats. The settings on record: Rattus norvegicus, ip, read-out: hypnotic dose.
Procedure: Hypnotic activity was assessed by simply determining the doses of the test substances (administered by IP injection) sufficient to cause a loss of the righting reflex (see above) and an apparent loss of consciousness and responsiveness.
The test system of data set [23] is aggressive experimental animals and anxious humans. The settings on record: cited from earlier work.
In data set [24] the test system is male mice. The settings on record: mouse, in vivo, ip. On the procedure: as §2
Data set [25] has as its system rats. The settings on record: rat, in vivo. How it is done: as §2

Regarding `CCCC(N)=O` [n-Butyramide], the “anxiolytic activity in Vogel Conflict Assay” value in data set [1] (IP) was “no significant anxiolytic activity”.

Turning to `CN1C(=O)CN=C(c2ccccc2)c2cc(Cl)ccc21` [diazepam], the “increase in the number of licks” value in [2] is recorded as “ten-fold increase”.

With `CC(=O)O[C@H]1C[C@@H]2C(COC(=O)CC(C)C)=CO[C@@H](OC(=O)CC(C)C)[C@@H]2[C@@]12CO2` [Didrovaltrate], the EC50 in [3] (Col2, COL-2, 48 hr) came out at 1.49 µg/mL (≈ 3.51 µM); in data set [4] (MEL2, MEL-2, 48 hr), 0.42 µg/mL (≈ 0.989 µM); in [5] (BCA1, BCA-1, 48 hr), 0.7 µg/mL (≈ 1.65 µM); in data set [6] (HT-1080, 48 hr), 0.7 µg/mL (≈ 1.65 µM); in data set [7] (48 hr), 2.03 µg/mL (≈ 4.78 µM); in data set [8] (KB-V1, 48 hr), 1.29 µg/mL (≈ 3.04 µM). Further, the EC50 in [9] (LUC1, LUC-1, 48 hr) was 2.91 µg/mL (≈ 6.86 µM); in [10] (P388, 48 hr), 0.19 µg/mL (≈ 0.448 µM).

In the case of `CC(C)CC(N)=O` [Isovaleramide, isovaleramide], in data set [11] (Impens 1912, Junkmann 1937), the “clinical usefulness as a hypnotic” value is recorded as “clinically useless as a hypnotic”. The “narcotic and hypnotic effects” value in [11] was “narcotic and hypnotic effects in experimental animals when administered in very high doses; also recorded: hypnotic activity only when administered to experimental animals in very high doses”. The EC50 in [3] (Col2, 48 h) is over 20 µg/mL; in data set [4] (MEL2, 48 h), over 20 µg/mL; in [5] (BCA1, 48 h) it was over 20 µg/mL; in [6] (HT-1080, 48 h), over 20 µg/mL; in data set [7] (48 h) it was over 20 µg/mL; in data set [8] (KB-V1, 48 h) it was over 20 µg/mL. Also, the EC50 in data set [9] (LUC1, 48 h) is over 20 µg/mL; in data set [10] (P388, 48 h), over 20 µg/mL. For the same molecule, the minimal effective dose in data set [12] (naive observers, read-out: dose at which naive observers distinguish treated mice from saline controls) is 250 mg/kg; in data set [12] (very astute observers, read-out: dose at which very astute observers distinguish treated mice from controls), 100 mg/kg; in [14] (mice, IP, not hypnotic even at 1000 mg/kg, hypnotic at 2000 mg/kg, read-out: hypnotic dose), over 1000 mg/kg; in data set [14] (mice, IP, not hypnotic even at this dose, read-out: hypnotic dose), over 9900 µmol/kg; in [14] (very large doses approaching toxic dose levels, read-out: dose producing hypnosis), over 1000 mg/kg. In addition, the observed sedative effects result in [12] (1000 mg/kg IP) is “clearly sedentary”; in data set [12] (500 and 1000 mg/kg IP), “much more pronounced”. In [13], the hepatic porphyria-inducing properties entry is recorded as “no hepatic porphyria-inducing properties”. Besides, in data set [15], the water solubility entry was “essentially water soluble”. The cytotoxicity result in data set [16] was “no cytotoxicity”. Besides, in [17], the anticonvulsant properties result is “no anticonvulsant properties”. In addition, the LD50 in data set [18] is over 4000 mg/kg. The selectivity ratio in [18] was about 40. In [19], the survival entry is given as “more than half of the experimental animals survived”. Further, the mortality result in [19] (after sleeping for several days) was “some deaths”. Also, the entries for the “decrease in spontaneous locomotor activity” value in [20] (250 mg/kg IP) and in [20] (500 mg/kg IP) were “decreased locomotor activity to a level comparable to that induced by valnoctamide at 25 mg/kg” and “comparable to that induced by valnoctamide at 50 mg/kg IP”, respectively. Further, the “relative potency as strong sedative-hypnotic agent, valnoctamide versus isovaleramide” value in data set [20] is reported as “only about one-tenth of the potent sedative-hypnotic properties exhibited by valnoctamide”. Also, the “increase in the number of punished licks over controls” value in data set [1] (IP, 500-1000 mg/kg) is on record as “approximate three-fold increase”.

Consider `CCC(C)C(CC)C(N)=O` (racemic) [valnoctamide], for which, in data set [21], the therapeutic index was about 11.4. For the same molecule, the minimal effective dose in [22] was 250 mg/kg and 1750 µmol/kg. Also, the water solubility entry in [15] is recorded as “very water insoluble”. For the same molecule, the “tranquilizing and anxiety-reducing properties” value in data set [23] was “purported to exhibit tranquilizing and anxiety-reducing properties”. Also, the “relative potency as strong sedative-hypnotic agent, valnoctamide versus isovaleramide” value in data set [20] is reported as “about ten times more potent than isovaleramide”.

On to `OC[C@H]1O[C@@](CO)(O[C@H]2O[C@H](CO)[C@@H](O)[C@H](O)[C@H]2O)[C@@H](O)[C@@H]1O` [sucrose], for which the “anxiolytic activity in Vogel Conflict Assay” value in data set [1] (IP) is “no significant anxiolytic activity”.

`CCN(CC)C(=O)CC(C)C` [N,N-Diethylisovaleramide, N,N-diethylisovaleramide]: in [24], the “dose causing death following convulsive seizures” value was 500 mg/kg; the “dose with potent CNS-stimulating and convulsant properties” value is 250 mg/kg. Besides, the “CNS-stimulating, anxiogenic and convulsant properties” value in [25] was “CNS-stimulating, anxiogenic, and convulsant properties”. In addition, the “dose at which potent convulsant” value in [25] (ip) was determined as 250 mg/kg. The “dose with CNS-stimulating (excitant) activity” value in data set [1] (Vogel assay (FIG. 2)) came out at 50 mg/kg.

With `CC(C)CC(=O)O` [Isovaleric acid], the “narcotic and hypnotic effects” value in data set [11] is “narcotic and hypnotic effects in experimental animals when administered in very high doses”.

Regarding `CC(=O)OCC1=CO[C@@H](OC(=O)CC(C)C)[C@H]2C1=C[C@H](OC(=O)CC(C)C)[C@]21CO1` [Valtrate], the EC50 in data set [3] (Col2, 48 h) was 0.59 µg/mL (≈ 1.4 µM); in data set [4] (MEL2, 48 h), 0.39 µg/mL (≈ 0.923 µM); in data set [5] (BCA1, 48 h), 0.41 µg/mL (≈ 0.97 µM); in data set [6] (HT-1080, 48 h), 0.41 µg/mL (≈ 0.97 µM); in data set [7] (48 h), 0.51 µg/mL (≈ 1.21 µM); in [8] (KB-V1, 48 h), 0.72 µg/mL (≈ 1.7 µM). In addition, the EC50 in data set [9] (LUC1, 48 h) was 2 µg/mL (≈ 4.73 µM); in data set [10] (P388, 48 h), 0.06 µg/mL (≈ 0.142 µM).

On to `CC(=O)OCC1=CO[C@@H](OC(=O)CC(C)C)[C@H]2C1=C[C@H](OC(=O)CC(C)(C)OC(C)=O)[C@]21CO1` [Acevaltrate], for which the EC50 in data set [3] (Col2, COL-2, 48 hr) was found to be 2.89 µg/mL (≈ 6.01 µM); in data set [4] (MEL2, MEL-2, 48 hr), 0.75 µg/mL (≈ 1.56 µM); in data set [5] (BCA1, BCA-1, 48 hr), 1.94 µg/mL (≈ 4.04 µM); in [6] (HT-1080, 48 hr), 2.05 µg/mL (≈ 4.27 µM); in data set [7] (48 hr) it was 2.7 µg/mL (≈ 5.62 µM); in data set [8] (KB-V1, 48 hr), 2.26 µg/mL (≈ 4.7 µM). Further, the EC50 in [9] (LUC1, LUC-1, 48 hr) is 4.3 µg/mL (≈ 8.95 µM); in data set [10] (P388, 48 hr) it was 0.88 µg/mL (≈ 1.83 µM).
